Measured values: patent publication US11584744B2 (UNIVERSITY OF WASHINGTON, priority 2017, dated 2023)
In brackets after ≈: the same amount, converted by molar mass. Several values for one entry are separate records, joined by “and”; a condition that tells them apart may be missing. Equal values may be shown once. Read-outs that look alike come from different tables or passages of the source.

Assays:
[1] = test system: G. lamblia (ATCC GL50803); assay: G. lamblia growth inhibition; format: cell-based; conditions: Giardia duodenalis, read-out: (K) G. lamblia (ATCC GL50803) EC50
[2] = test system: S. aureus MSSA (ATCC 29213); assay: MIC susceptibility testing; format: cell-based, Staphylococcus aureus; conditions: S. aureus ATCC 29213; for MIC: Staphylococcus aureus, read-out: (F) S. aureus (ATCC 29213) MIC
[3] = test system: S. aureus MRSA (ATCC 33591); assay: MIC susceptibility testing; format: cell-based, Staphylococcus aureus; conditions: MRSA ATCC33591; for MIC: Staphylococcus aureus, read-out: (G) MRSA (ATCC33591) MIC
Outline: (§1)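 CLSI broth microdilution in triplicate, 5×10^5 CFU/mL final, ≤0.5% DMSO; MHB for S. aureus, CA-MHB for E. coli and E. faecium, CA-MHB plus 3% laked horse blood for S. pyogenes (5% CO2).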

[4] = molecular target: MetRS (C. parvum) (Cryptosporidium parvum, UniProt Q5CVN0); assay: MetRS (C. parvum) enzyme inhibition; format: biochemical; conditions: read-out: (C) MetRS (C. parvum) IC50
[5] = test system: C. parvum; assay: C. parvum growth inhibition; format: cell-based, Cryptosporidium parvum; conditions: read-out: (J) C. parvum EC50
[6] = molecular target: T1, MetRS (T. brucei) (Trypanosoma brucei brucei, UniProt Q38C91); assay: MetRS (T. brucei) enzyme inhibition; format: biochemical
T1 sequence (Q38C91 1-773): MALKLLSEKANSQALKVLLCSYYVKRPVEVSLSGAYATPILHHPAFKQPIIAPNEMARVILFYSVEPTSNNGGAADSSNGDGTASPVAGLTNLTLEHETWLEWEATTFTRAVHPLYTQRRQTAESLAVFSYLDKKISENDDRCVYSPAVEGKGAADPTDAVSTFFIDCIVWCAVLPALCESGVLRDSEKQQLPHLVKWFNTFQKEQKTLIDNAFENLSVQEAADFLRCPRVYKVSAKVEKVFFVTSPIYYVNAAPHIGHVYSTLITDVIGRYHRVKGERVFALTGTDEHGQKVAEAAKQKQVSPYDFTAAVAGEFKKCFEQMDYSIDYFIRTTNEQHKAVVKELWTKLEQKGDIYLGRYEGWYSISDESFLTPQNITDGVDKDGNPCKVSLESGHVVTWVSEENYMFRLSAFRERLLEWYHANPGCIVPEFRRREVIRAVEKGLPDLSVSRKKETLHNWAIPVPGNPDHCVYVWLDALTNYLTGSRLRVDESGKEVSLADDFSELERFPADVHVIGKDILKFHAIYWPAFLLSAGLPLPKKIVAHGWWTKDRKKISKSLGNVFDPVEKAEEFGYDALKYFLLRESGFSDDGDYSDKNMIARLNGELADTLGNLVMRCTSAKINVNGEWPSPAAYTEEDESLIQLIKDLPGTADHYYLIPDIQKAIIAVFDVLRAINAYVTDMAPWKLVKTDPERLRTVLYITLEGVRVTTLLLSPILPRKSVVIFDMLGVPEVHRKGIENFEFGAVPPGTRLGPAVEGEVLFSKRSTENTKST

[7] = test system: E. faecium VRE (ATCC 51559); assay: MIC susceptibility testing; format: cell-based, Enterococcus faecium; conditions: E. faecium ATCC 51559; for MIC: Enterococcus faecium, read-out: (I) E. faecium (ATCC 51559) MIC
Outline: as §1

[8] = test system: T. cruzi; assay: T. cruzi growth inhibition; format: cell-based, Trypanosoma cruzi; conditions: read-out: (E) T. cruzi EC50
[9] = test system: T. brucei; assay: T. brucei growth inhibition; format: cell-based, Trypanosoma brucei; conditions: read-out: (D) T. brucei EC50
[10] = molecular target: recombinant S. aureus MetRS enzyme (Staphylococcus aureus, UniProt A0A0H2XID2); assay: Inhibition of SaMetRS, ATP depletion assay; format: biochemical; conditions: read-out: (B) MetRS (S. aureus) IC50
Outline: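 N-terminal 6-His S. aureus MetRS (25 nM) was pre-incubated 15 min at room temperature with compound, 400 μg/mL E. coli tRNA and pyrophosphatase in HEPES-KOH pH 7.9, 2% DMSO. Reaction started with 150 nM ATP plus 20 μM L-methionine, ran 120 min; remaining ATP read by Kinase-Glo luminescence, IC50 by sigmoidal nonlinear regression.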

[11] = test system: S. pyogenes (ATCC 19615); assay: MIC susceptibility testing; format: cell-based; conditions: Streptococcus pyogenes, ATCC19615, S. pyogenes ATCC 19615; read-out: (H) S. pyogenes (ATCC 19615) MIC
Description: Media and culture conditions. Mueller Hinton broth (MHB), cation adjusted Mueller Hinton broth (CA-MHB), and Brain Heart Infusion broth (BHI) were purchased from Becton Dickinson (Franklin Lakes, N.J.). Tryptic soy agar (TSA) plates, TSA with 5% sheep blood plates, and CA-MHB with 3% laked horse blood were purchased from Remel (San Diego, Calif.). MHB was used to assay all Staphylococcus aureus strains. CA-MHB was used for Staphylococcus epidermidis, Enterococcus faecalis, Enterococcus faecium, Escherichia coli, and Pseudomonas aeruginosa. CA-MHB supplemented with 3% laked horse blood was used for Streptococcus pneumoniae and Streptococcus pyogenes. Staphylococcus, Enterococcus, Escherichia, and Pseudomonas strains were cultured at 37° C. with ambient air. Streptococcus strains were cultured in 37° C. with 5% CO2. Separate conditions for radiolabeled precursor uptake assays are described below.
Susceptibility testing: Minimum inhibitory concentration (MIC) determinations were performed in triplicate in 96-well round bottom microtiter plates (Corning, Corning N.Y.) as described by the Clinical and Laboratory Standards Institute (CLSI). Serial two-fold dilutions of compounds were added to plates in 50 μL volumes. An additional 50 μL of media containing bacterial cells (1×10^6 CFUs/mL) was then added to each well. Maximum DMSO concentrations were 0.5%. Plates were incubated at 37° C. for at least 18 h before reading the susceptibility result by optical absorbance (OD600) using a BioTek ELx800. The lowest concentration causing ≥90% growth inhibition compared to the untreated control was recorded as the MIC (and also corresponded to the visual MIC). MICs were measured at least twice and the higher value (if different) was recorded herein.

Chain of MetRS (C. parvum) (Q5CVN0 entry or part of it): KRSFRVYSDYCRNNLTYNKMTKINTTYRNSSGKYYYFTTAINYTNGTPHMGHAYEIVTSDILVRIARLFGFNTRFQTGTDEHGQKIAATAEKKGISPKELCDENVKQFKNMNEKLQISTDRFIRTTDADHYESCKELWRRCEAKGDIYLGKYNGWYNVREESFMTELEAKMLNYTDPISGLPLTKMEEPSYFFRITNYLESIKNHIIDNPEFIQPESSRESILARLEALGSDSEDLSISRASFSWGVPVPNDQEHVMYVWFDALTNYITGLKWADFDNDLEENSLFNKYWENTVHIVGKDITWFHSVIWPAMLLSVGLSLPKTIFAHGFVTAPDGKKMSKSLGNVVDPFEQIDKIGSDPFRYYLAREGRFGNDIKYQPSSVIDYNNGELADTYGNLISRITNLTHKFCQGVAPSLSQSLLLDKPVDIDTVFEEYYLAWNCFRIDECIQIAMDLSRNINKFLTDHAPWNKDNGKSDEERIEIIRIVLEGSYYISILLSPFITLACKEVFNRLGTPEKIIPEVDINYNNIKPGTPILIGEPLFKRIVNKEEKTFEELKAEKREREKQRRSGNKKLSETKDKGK
Chain of recombinant S. aureus MetRS enzyme (A0A0H2XID2 2-657): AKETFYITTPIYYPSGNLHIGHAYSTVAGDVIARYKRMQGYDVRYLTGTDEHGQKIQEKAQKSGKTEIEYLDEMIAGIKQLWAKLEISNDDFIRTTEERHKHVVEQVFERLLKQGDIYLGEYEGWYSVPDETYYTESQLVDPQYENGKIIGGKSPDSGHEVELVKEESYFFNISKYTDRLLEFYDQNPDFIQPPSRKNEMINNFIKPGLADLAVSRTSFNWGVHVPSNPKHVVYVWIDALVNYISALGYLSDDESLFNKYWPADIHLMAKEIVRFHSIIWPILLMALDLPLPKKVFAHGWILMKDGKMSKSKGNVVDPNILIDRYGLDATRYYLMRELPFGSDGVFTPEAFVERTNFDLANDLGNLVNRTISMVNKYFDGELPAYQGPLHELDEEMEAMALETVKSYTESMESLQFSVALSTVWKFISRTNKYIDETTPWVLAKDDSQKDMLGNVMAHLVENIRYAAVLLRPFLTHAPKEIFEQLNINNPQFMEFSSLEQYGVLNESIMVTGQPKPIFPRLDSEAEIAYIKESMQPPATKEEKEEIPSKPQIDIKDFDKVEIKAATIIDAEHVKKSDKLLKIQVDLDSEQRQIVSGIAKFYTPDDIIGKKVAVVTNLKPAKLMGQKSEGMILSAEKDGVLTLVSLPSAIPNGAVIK

Compound	EC50 [1]	(F) S. aureus (ATCC 29213) MIC [2]	MIC [2]	MIC [3]	IC50 [4]	EC50 ([5]; Cryptosporidium parvum)	IC50 [6]	MIC [7]	EC50 ([8]; Trypanosoma cruzi)	EC50 ([9]; Trypanosoma brucei)	EC50 [9]	IC50 [10]	MIC [11]	EC50 [5]	(I) E. faecium (ATCC 51559) MIC [7]	(G) MRSA (ATCC33591) MIC [3]	EC50 [8]
COc1ccc(Cc2cn(Cc3nc4nc(Cl)ccc4[nH]3)c(=O)n2CC(C)(C)O)c(Cl)c1 [Compound 2207, 1-({5-chloro-1H-imidazo[4,5-b]pyridin-2-yl}methyl)-4-[(2-chloro-4-methoxyphenyl)methyl]-3-(2-hydroxy-2-methylpropyl)-2,3-dihydro-1H-imidazol-2-one]	0.03 µM	0.424 µg/mL	0.218 µg/mL (≈ 0.458 µM)	0.334 µg/mL (≈ 0.701 µM)	< 0.04 µM	0.129 µM	< 0.04 µM										
COc1ccc(-c2cccc3c2CN(Cc2nc4c(C#N)c(Cl)ccc4[nH]2)C3=O)c(Cl)c1 [Compound 2233, 5-chlor0-2-((4-(2-chloro-4-methoxyphenyl)-1-oxoisoindolin-2-yl)methyl)-1H-benzo[d]imidazole-4-carbonitrile]	0.02 µM			0.186 µg/mL (≈ 0.401 µM)	< 0.04 µM			0.147 µg/mL (≈ 0.317 µM)	0.207 µM	0.0233 µM	0.0278 µM						
C[S+]([O-])c1nc(Cc2ccc(Cl)cc2Cl)cn1Cc1nc2nc(Cl)ccc2[nH]1 (stereo not shown) [Compound 2110, 1-({5-chloro-1H-imidazo[4,5-b]pyridin-2-yl}methyl)-4-[(2,4-dichlorophenyl)methyl]-2-methanesulfinyl-1H-imidazole]			0.795 µg/mL (≈ 1.75 µM)	2.36 µg/mL (≈ 5.19 µM)	0.0986 µM	1.27 µM	< 0.04 µM	1.99 µg/mL (≈ 4.38 µM)	0.178 µM	0.0194 µM		< 0.025 µM	> 4 µg/mL				
CC(C)n1c(Cc2ccc(Cl)cc2Cl)cn(Cc2nc3ccc(F)nc3[nH]2)c1=O [Compound 2080, 4-[(2,4-dichlorophenyl)methyl]-1-({5-fluoro-1H-imidazo[4,5-b]pyridin-2-yl}methyl)-3-(propan-2-yl)-2,3-dihydro-1H-imidazol-2-one]	3.85 µM		0.999 µg/mL (≈ 2.3 µM)	1.4 µg/mL (≈ 3.22 µM)	< 0.04 µM	0.61 µM	< 0.04 µM		0.22 µM					0.434 µM			
COc1cc(Cl)c(Cc2cn(Cc3nc4ccc(Cl)nc4[nH]3)c([S+](C)[O-])n2)cc1OC (stereo not shown) [Compound 2241, 1-({5-chloro-1H-imidazo[4,5-b]pyridin-2-yl}methyl)-4-[(2-chloro-4,5-dimethoxyphenyl)methyl]-2-methanesulfinyl-1H-imidazole]				0.104 µg/mL (≈ 0.216 µM)	< 0.04 µM	1.6 µM		0.0277 µg/mL (≈ 0.0577 µM)		0.00212 µM	0.00152 µM and 0.0018 µM and 0.00171 µM		0.847 µg/mL (≈ 1.76 µM)	> 2 µM	0.0206, μg/ml and 0.0160, μg/ml and 0.0189 μg/ml	0.113 µg/mL	
COc1ccc(-c2nccn3c(=O)n(Cc4nc5nc(Cl)ccc5[nH]4)cc23)c(Cl)c1 [Compound 2249, 2-({5-chloro-1H-imidazo[4,5-b]pyridin-2-yl}methyl)-8-(2-chloro-4-methoxyphenyl)-2H,3H-imidazo[1,5-a]pyrazin-3-one]	1.2 µM	3.33, μg/ml and 3.16 μg/ml	> 2 µg/mL		0.122 µM	1.07 µM			0.0764 µM	0.0309 µM	0.0316 µM			1.2 µM and 1.14 µM and > 2 µM			0.114 µM
COc1cc(Cl)c(Cc2cn(Cc3nc4nc(Cl)ccc4[nH]3)c(=O)n2CC(C)(C)O)cc1OC [Compound 2240, 1-({5-chloro-1H-imidazo[4,5-b]pyridin-2-yl}methyl)-4-[(2-chloro-4,5-dimethoxyphenyl)methyl]-3-(2-hydroxy-2-methylpropyl)-2,3-dihydro-1H-imidazol-2-one]	0.02 µM			0.0578 µg/mL (≈ 0.114 µM)	< 0.04 µM			0.0141 µg/mL (≈ 0.0278 µM)	0.0057 µM	< 0.00091 µM	0.00068 µM				0.0122 µg/mL		0.00683 µM
COc1ccc(-c2ccc(NC(C)=O)c3nc(Cc4nc5nc(Cl)ccc5[nH]4)cn23)c(Cl)c1 [Compound 2169, N-[2-({5-chloro-1H-imidazo[4,5-b]pyridin-2-yl}methyl)-5-(2-chloro-4-methoxyphenyl)imidazo[1,2-a]pyridin-8-yl]acetamide]	0.01 µM		0.259 µg/mL (≈ 0.538 µM)		< 0.04 µM	0.144 µM	< 0.04 µM							0.195 µM			
C[S+]([O-])c1nc(Cc2ccc(Cl)cc2Cl)cn1Cc1nc2ccc(F)nc2[nH]1 (stereo not shown) [Compound 2120, 4-[(2,4-dichlorophenyl)methyl]-1-({5-fluoro-1H-imidazo[4,5-b]pyridin-2-yl}methyl)-2-methanesulfinyl-1H-imidazole]			1.26 µg/mL (≈ 2.87 µM)		< 0.04 µM	1.23 µM	< 0.04 µM	0.336 µg/mL (≈ 0.767 µM)	0.295 µM	0.0136 µM		< 0.025 µM	> 4 µg/mL				
COc1cc(Cl)c(-c2cccc3c2CN(Cc2nc4nc(Cl)ccc4[nH]2)C3=O)cc1OC [Compound 2231, 2-((5-chloro-1H-imidazo[4,5-b]pyridin-2-yl)methyl)-4-(2-chloro-4,5-dimethoxyphenyl)isoindolin-1-one]	0.01 µM			< 0.00781 µg/mL	< 0.04 µM					< 0.00091 µM	0.00066 µM						
COc1ccc(Cc2cn(Cc3nc4c(Cl)c(Cl)ccc4[nH]3)c(=O)n2CC(C)(C)O)c(Cl)c1 [Compound 2242, 4-[(2-chloro-4-methoxyphenyl)methyl]-1-[(6,7-dichloro-1H-1,3-benzodiazol-2-yl)methyl]-3-(2-hydroxy-2-methylpropyl)-2,3-dihydro-1H-imidazol-2-one]	0.05 µM			1.81 µg/mL (≈ 3.55 µM)	< 0.04 µM	0.531 µM		0.599 µg/mL (≈ 1.17 µM)	0.112 µM	0.00897 µM	0.0118 µM			0.8 µM	0.847 µg/mL		
